Reference: patent US6734139B1, “N-aryl-uracile-based herbicides” (priority 1999, dated 2004)
Several values for one entry are separate records, joined by “and”; a condition that tells them apart may be missing. Identical values can stand only once.

Columns and labels:
Format in all cases: in vivo
maize = experiment: Pre-emergence test in maize (crop plant compatibility); details: for Average damage (%): maize, pre-emergence, 0.1% Renex-36
Method: (§1) Solvent: 2 to 3 parts by weight of acetone or N,N-dimethyl-formamide
(§2) Emulsifier: 1 part by weight of alkylaryl polyglycol ether
(§3) To produce a suitable preparation of active compound, 1 part by weight of active compound is mixed with the stated amount of solvent, the stated amount of emulsifier is added and the concentrate is diluted with water to the desired concentration. Formulated products are dissolved in water and then diluted with water to the desired concentration.
(§4) The solutions of the other mixing components (active compounds or safeners) are prepared analogously. The separately prepared solutions of the various mixing components are then combined and, if appropriate, additional substances (formulation auxiliaries, additives, etc.) are added and, if appropriate, water is added to prepare the desired dilution.
(§5) Seeds of the test plants are sown in standard soil. After 24 hours, the soil is sprayed with the preparation of active compound such that the particular amount of active compound desired in each case is applied per unit area. The concentration of active compound in the spray liquor is chosen such that the particular amount of active compound desired in each case is applied in 500 litres of water per hectare. The containers with the test plants are kept in a greenhouse at controlled temperature and controlled illumination until evaluation.
(§6) 0%=no effect/no damage (like untreated control)

Veronica = experiment: Post-emergence test (herbicidal action, Colby): Veronica
Description: (§7) The expected action for a given combination of two herbicides can be calculated as follows (cf. COLBY, S. R.: “Calculating synergistic and antagonistic responses of herbicide combinations”, Weeds 15, Pages 20-22, 1967):
(§8) If the actual damage exceeds the calculated value, the combination has a superadditive effect, that is to say a synergistic effect.
as §3, §4
(§9) After three weeks, the degree of damage to the plants is rated in % damage in comparison to the development of the untreated control. The figures denote
as §6

Solanum = experiment: Post-emergence test (herbicidal action, Colby): Solanum
Description: as §7, §8, §3, §4, §9, §6

weeds = experiment: Pre-emergence test (herbicidal action against weeds, Colby)
Description: as §7, §8
The theoretically expected activity for a given combination of three herbicides can likewise be found in the literature mentioned above.
as §1, §2, §3, §4, §5, §9, §6

Datura [1] = experiment: Post-emergence test (herbicidal action, Colby): Datura
Abutilon [2] = experiment: Post-emergence test (herbicidal action, Colby): Abutilon; details: 4 g of a.i./ha
Chenopodium [3] = experiment: Post-emergence test (herbicidal action, Colby): Chenopodium; details: 4 g of a.i./ha
Matricaria [4] = experiment: Post-emergence test (herbicidal action, Colby): Matricaria; details: 4 g of a.i./ha
Polygonum [5] = experiment: Post-emergence test (herbicidal action, Colby): Polygonum; details: 8 g of a.i./ha
Alopecurus = experiment: Pre-emergence test (herbicidal action, Colby): Alopecurus
Cyperus = experiment: Pre-emergence test (herbicidal action, Colby): Cyperus
Digitaria = experiment: Pre-emergence test (herbicidal action, Colby): Digitaria
Echinochloa = experiment: Pre-emergence test (herbicidal action, Colby): Echinochloa
Setaria = experiment: Pre-emergence test (herbicidal action, Colby): Setaria
Abutilon [6] = experiment: Pre-emergence test (herbicidal action, Colby): Abutilon
Matricaria [7] = experiment: Pre-emergence test (herbicidal action, Colby): Matricaria
Polygonum [8] = experiment: Pre-emergence test (herbicidal action, Colby): Polygonum
Stellaria = experiment: Pre-emergence test (herbicidal action, Colby): Stellaria; details: 4 g of a.i./ha
Ipomoea = experiment: Pre-emergence test (herbicidal action, Colby): Ipomoea
Viola = experiment: Pre-emergence test (herbicidal action, Colby): Viola; details: 8 g of a.i./ha
Datura [9] = experiment: Pre-emergence test (herbicidal action, Colby): Datura; details: 4 g of a.i./ha
Chenopodium [10] = experiment: Pre-emergence test (herbicidal action, Colby): Chenopodium; details: 4 g of a.i./ha
Eriochloa = experiment: Pre-emergence test (herbicidal action, Colby): Eriochloa
Cassia = experiment: Pre-emergence test (herbicidal action, Colby): Cassia; details: 4 g of a.i./ha
Bromus = experiment: Pre-emergence test (herbicidal action, Colby): Bromus; details: 4 g of a.i./ha
Galium = experiment: Pre-emergence test (herbicidal action, Colby): Galium; details: 8 g of a.i./ha
Lolium = experiment: Pre-emergence test (herbicidal action, Colby): Lolium; details: 8 g of a.i./ha
[11] = single active compound at 4 g of a.i./ha

CCS(=O)(=O)N(C(=O)C(C)(C)C)c1cc(-n2c(=O)cc(C(F)(F)F)n(C)c2=O)c(F)cc1C#N [I-3, N-[2-cyano-4-fluoro-5-(3-methyl-2,6-dioxo-4-trifluoromethyl-3,6-dihydro-1(2H)-pyrimidinyl)-phenyl]-N-(2,2-dimethyl-propanoyl)-1-ethanesulphonamide]
Maize (7 days) (maize; Table A28, 60 g of a.i./ha): 10% | Maize (12 days) (maize; Table A28, 60 g of a.i./ha): 20% | Maize (21 days) (maize; Table A28, 60 g of a.i./ha): 17% | Maize (7 days) (maize; Table A28, 90 g of a.i./ha): 20% | Maize (21 days) (maize; Table A28, 90 g of a.i./ha): 36% | Maize (12 days) (maize; Table A29, 60 g of a.i./ha): 20% | Maize (12 days) (maize; Table A29, 90 g of a.i./ha): 30% | Maize (21 days) (maize; Table A29, 90 g of a.i./ha): 36% | Maize (7 days) (maize; Table A31, 90 g of a.i./ha): 20% | Maize (12 days) (maize; Table A31, 90 g of a.i./ha): 30% | Maize (21 days) (maize; Table A31, 90 g of a.i./ha): 29% | Average damage (%) (maize; active compound 1 alone at 60 g of a.i./ha): 17% | Average damage (%) (maize; active compound 1 alone at 90 g of a.i./ha): 36% | Veronica (Veronica; 4 g of a.i./ha): 0% | Veronica (Veronica; 8 g of a.i./ha): 70% | damage, Veronica (Veronica; [11]): 0% | damage, Veronica (Veronica; single active compound at 8 g of a.i./ha): 70% | Solanum (Solanum; 4 g of a.i./ha): 30% | damage, Solanum (Solanum; [11]): 30% | Chenopodium (pre-emergence test) (weeds; Table 23, 4 g of a.i./ha): 80 | Galium (pre-emergence test) (weeds; Table 23, 4 g of a.i./ha): 0 | Lolium (pre-emergence test) (weeds; Table 23, 4 g of a.i./ha): 0 | Setaria (pre-emergence test) (weeds; Table 23, 4 g of a.i./ha): 0 | Eriochloa (pre-emergence test) (weeds; Table 23, 8 g of a.i./ha): 50 | Ipomoea (pre-emergence test) (weeds; Table 23, 8 g of a.i./ha): 30 | Setaria (pre-emergence test) (weeds; Table 23, 8 g of a.i./ha): 0 | Chenopodium (pre-emergence test) (weeds; Table A20, 4 g of a.i./ha): 80 | Datura (pre-emergence test) (weeds; Table A20, 4 g of a.i./ha): 0 | Ipomoea (pre-emergence test) (weeds; Table A20, 4 g of a.i./ha): 30 | Lolium (pre-emergence test) (weeds; Table A20, 4 g of a.i./ha): 0 | Datura (pre-emergence test) (weeds; Table A20, 8 g of a.i./ha): 30 | Galium (pre-emergence test) (weeds; Table A20, 8 g of a.i./ha): 20 | Ipomoea (pre-emergence test) (weeds; Table A20, 8 g of a.i./ha): 30 | Chenopodium (pre-emergence test) (weeds; Table A21, 4 g of a.i./ha): 80 | Datura (pre-emergence test) (weeds; Table A21, 4 g of a.i./ha): 0 | Polygonum (pre-emergence test) (weeds; Table A21, 4 g of a.i./ha): 40 | Ipomoea (pre-emergence test) (weeds; Table A21, 8 g of a.i./ha): 30 | Polygonum (pre-emergence test) (weeds; Table A21, 8 g of a.i./ha): 90 | Datura (pre-emergence test) (weeds; Table A22, 4 g of a.i./ha): 0 | Polygonum (pre-emergence test) (weeds; Table A22, 4 g of a.i./ha): 40 | Cassia (pre-emergence test) (weeds; Table A22, 8 g of a.i./ha): 50 | Cassia (pre-emergence test) (weeds; Table A24, 4 g of a.i./ha): 0 | Echinochloa (pre-emergence test) (weeds; Table A24, 4 g of a.i./ha): 30 | Lolium (pre-emergence test) (weeds; Table A24, 4 g of a.i./ha): 0 | Veronica (pre-emergence test) (weeds; Table A24, 4 g of a.i./ha): 30 | Echinochloa (pre-emergence test) (weeds; Table A24, 8 g of a.i./ha): 30 | Setaria (pre-emergence test) (weeds; Table A24, 8 g of a.i./ha): 30 | Bromus (pre-emergence test) (weeds; Table A25, 4 g of a.i./ha): 0 | Avena (pre-emergence test) (weeds; Table A25, 8 g of a.i./ha): 40 | Cyperus (pre-emergence test) (weeds; Table A25, 8 g of a.i./ha): 50 | Lolium (pre-emergence test) (weeds; Table A25, 8 g of a.i./ha): 60 | Avena (pre-emergence test) (weeds; Table A26, 4 g of a.i./ha): 40 | Digitaria (pre-emergence test) (weeds; Table A26, 4 g of a.i./ha): 30 | Echinochloa (pre-emergence test) (weeds; Table A26, 4 g of a.i./ha): 0 | Lolium (pre-emergence test) (weeds; Table A26, 4 g of a.i./ha): 30 | Matricaria (pre-emergence test) (weeds; Table A26, 4 g of a.i./ha): 30 | Setaria (pre-emergence test) (weeds; Table A26, 4 g of a.i./ha): 0 | Cassia (pre-emergence test) (weeds; Table A26, 8 g of a.i./ha): 30 | Echinochloa (pre-emergence test) (weeds; Table A26, 8 g of a.i./ha): 30 | Lolium (pre-emergence test) (weeds; Table A26, 8 g of a.i./ha): 30 | Matricaria (pre-emergence test) (weeds; Table A26, 8 g of a.i./ha): 70 | Setaria (pre-emergence test) (weeds; Table A26, 8 g of a.i./ha): 30 | Abutilon (pre-emergence test) (weeds; Table A27, 8 g of a.i./ha): 95 | Cassia (pre-emergence test) (weeds; Table A27, 8 g of a.i./ha): 30 | Polygonum (pre-emergence test) (weeds; Table A27, 8 g of a.i./ha): 20 | Datura (Datura [1]; 4 g of a.i./ha): 30% | Datura (Datura [1]; 8 g of a.i./ha): 60% | Abutilon (Abutilon [2]): 0% | Chenopodium (Chenopodium [3]): 0% | Matricaria (Matricaria [4]): 70% | Polygonum (Polygonum [5]): 60% | Alopecurus (Alopecurus; 4 g of a.i./ha): 0% | Alopecurus (Alopecurus; 8 g of a.i./ha): 0% | Cyperus (Cyperus; 4 g of a.i./ha): 0% | Cyperus (Cyperus; 8 g of a.i./ha): 30% | Digitaria (Digitaria; 4 g of a.i./ha): 0% | Digitaria (Digitaria; 8 g of a.i./ha): 20% | Echinochloa (Echinochloa; 4 g of a.i./ha): 0% | Echinochloa (Echinochloa; 8 g of a.i./ha): 0% | Setaria (Setaria; 4 g of a.i./ha): 0% | Setaria (Setaria; 8 g of a.i./ha): 0% | pest or weed control at 4 g/ha (Abutilon [6]; 4 g of a.i./ha): 20% | pest or weed control at 8 g/ha (Abutilon [6]; 8 g of a.i./ha): 50% | Matricaria (Matricaria [7]; 4 g of a.i./ha): 50% | Matricaria (Matricaria [7]; 8 g of a.i./ha): 90% | Polygonum (Polygonum [8]; 4 g of a.i./ha): 0% | Polygonum (Polygonum [8]; 8 g of a.i./ha): 90% | Stellaria (Stellaria): 80% | Ipomoea (Ipomoea; 4 g of a.i./ha): 30% and 50% | Ipomoea (Ipomoea; 8 g of a.i./ha): 30% | Viola (Viola): 90% | Datura (Datura [9]): 30% | Chenopodium (Chenopodium [10]): 80% | Eriochloa (Eriochloa; 4 g of a.i./ha): 30% | Eriochloa (Eriochloa; 8 g of a.i./ha): 50% | Cassia (Cassia): 40% | Bromus (Bromus): 0% | Galium (Galium): 30% | Lolium (Lolium): 20%
